Laboratory results from ChEMBL document CHEMBL3352162, “Synthesis of bi-/tricyclic azasugars fused thiazinan-4-one and their HIV-RT inhibitory activity” (Bioorg Med Chem Lett, 2014).

Biological target: Human immunodeficiency virus type 1 reverse transcriptase (Human immunodeficiency virus 1, UniProt Q72547)
Experiment: Inhibition of HIV-1 reverse transcriptase after 1 hr by ELISA plate reader analysis

In order of rising IC50:
1. O=C1c2ccccc2S[C@H]2[C@@H](O)[C@@H](O)[C@H](O)[C@H](CO)N12  0.49 µM
2. O=C1c2ccccc2S[C@@H]2[C@@H](O)[C@@H](O)[C@H](O)[C@H](CO)N12  1.32 µM
3. O=C1CCS[C@@H]2[C@@H](O)[C@@H](O)[C@H](O)[C@@H](CO)N12  1.41 µM
4. O=C1c2ccccc2S[C@H]2[C@@H](O)[C@@H](O)[C@H](O)CN12  1.58 µM
5. O=C1c2ccccc2S[C@@H]2[C@@H](O)[C@@H](O)[C@H](O)CN12  3.83 µM
6. O=C1CCS[C@@H]2[C@@H](O)[C@@H](O)[C@H](O)[C@H](CO)N12  6.02 µM
7. O=C1CCS[C@H]2[C@@H](O)[C@@H](O)[C@H](O)[C@H](CO)N12  12.9 µM
8. O=C1c2ccccc2S[C@@H]2[C@@H](O)[C@@H](O)[C@H](O)[C@@H](CO)N12  19.7 µM
9. O=C1c2cccnc2S[C@@H]2[C@@H](O)[C@@H](O)[C@H](O)[C@H](CO)N12  26.8 µM
10. O=C1c2cccnc2S[C@H]2[C@@H](O)[C@@H](O)[C@H](O)[C@H](CO)N12  31.4 µM
11. O=C1c2cccnc2S[C@@H]2[C@@H](O)[C@@H](O)[C@H](O)[C@@H](CO)N12  53.8 µM
